Entries after “also recorded” stand apart in the source; their conditions may differ.
What was measured:
skin [1] = assay: Exfoliating efficacy of topical creams by the dansyl chloride method (skin turnover time); type: in vivo, human
Procedure: The exfoliating efficacy of topical L-carnitine compositions of varying pH was determined as follows. L-carnitine containing reparative/exfoliating creams with a UV sunscreen were prepared as described in Example 2, except (1) phase B included 10.00% urea, 3.0% Natrulon® H-10, and 45.50% deionized water, (2) phase C included (a) 5.6% L-carnitine, (b) q,s. of sodium hydroxide and hydrochloric acid to adjust the pH of the cream to 4, 5, 6, or 7, and (c) 20.1% deionized water.
Each topical composition (creams) was tested as follows. The composition was applied twice daily to skin (approximately 0.2 g/10 cm^2) over a period of 20 days, and the exfoliation was measured using the dansyl chloride method.
The dansyl chloride method is a method of measuring skin turnover time. The method involves first treating the skin with a fluorescent dye (namely, dansyl chloride) and then, with the aid of a UV light, observing the disappearance of the fluorescence over time. When the site no longer fluoresces, the skin is considered to have turned over.
The exfoliating efficacy of the glycolic acid cream was compared to that of the L-carnitine creams at pH 4 and pH 7 described in Example 7 by the procedure described in Example 7.
The exfoliating efficacy of topical compositions (all at pH 7) containing 2.8% or 5.6% L-carnitine or 2.8% or 5.6% racemic (DL) carnitine was determined by the method described in Example 7. The 5.6% L-carnitine composition tested was that described in Example 7. The 5.6% DL-carnitine composition was prepared as described in Example 7, replacing the 5.6% L-carnitine with 5.6% DL-carnitine. The 2.8% L-carnitine and 2.8% DL-carnitine compositions were prepared as described in Example 7, replacing the 5.6% L-carnitine with (1) 2.8% L-carnitine and 2.8% DL-carnitine, respectively, and (2) 2.8% deionized water. DL-carntine is a racemic mixture containing 50% L-carnitine and 50% D-carnitine.
The exfoliating efficacy of topical compositions including (1) papain, (2) 5.6% L-carnitine, (3) 5.6% glycolic acid, or (4) papain with 5.6% L-carnitine was determined as follows.
The compositions were tested by the procedure described in Example 7.

skin [2] = assay: Moisturizing efficacy: water content of the skin measured with a corneometer; type: in vivo, human; conditions: 5% in cream
Procedure: Each composition was applied twice daily to skin (0.2 g/10 cm^2) over a period of 10 days, and the water content of the skin was measured with a corneometer. Untreated skin was also tested as a control.

Compound | exfoliating efficacy compared with racemic (DL) carnitine (skin [1]; 2.8% or 5.6% creams, all at pH 7 (FIG. 3)) | exfoliating efficacy, effect of composition pH (skin [1]; 5.6% L-carnitine cream at pH 4, 5, 6 or 7, applied twice daily over 20 days (FIG. 1)) | exfoliating efficacy compared with glycolic acid (skin [1]; L-carnitine cream, alone or with papain, vs 5.6% glycolic acid cream pH 4.0 (FIG. 2, FIG. 4)) | ability to exfoliate and reduce the time needed for skin turnover (skin [1]; pH 4-7) | Water content of the skin after 1 day of treatment (skin [2]; twice daily 0.2 g/10 cm^2, 1 day) | Water content of the skin after 2 days of treatment (skin [2]; twice daily 0.2 g/10 cm^2, 2 days) | Water content of the skin after 3 days of treatment (skin [2]; twice daily 0.2 g/10 cm^2, 3 days) | Water content of the skin after 6 days of treatment (skin [2]; twice daily 0.2 g/10 cm^2, 6 days) | Water content of the skin after 8 days of treatment (skin [2]; twice daily 0.2 g/10 cm^2, 8 days) | Water content of the skin after 9 days of treatment (skin [2]; twice daily 0.2 g/10 cm^2, 9 days) | Water content of the skin after 10 days of treatment (skin [2]; twice daily 0.2 g/10 cm^2, 10 days)
C[N+](C)(C)C[C@H](O)CC(=O)[O-] [L-carnitine] | more effective as an exfoliant than racemic carnitine at the same concentration; also recorded: exfoliates skin more effectively and faster than racemic carnitine | most effective at the optimal pH for enzymes, i.e., at a pH around 7; also recorded: exfoliates skin more effectively and faster in a topical composition at a pH of 7 than a similar composition at a pH of 4, 5, or 6 | exfoliates skin more effectively and faster than glycolic acid | exhibits the ability to exfoliate and to significantly reduce the time needed for skin turnover | – | – | – | – | – | – | –
decaglycerol | – | – | – | – | 44.4% | 54.2% | 56.9% | 53.0% | 59.2% | 62.8% | 60.5%

Reference: patent publication US20050100519A1, “Topical L-carnitine compositions” (Lonza Inc., priority 2003, published 2005)
